The text below walks through data of US8580790B2, “(Heterocycle/condensed piperidine)-(piperazinyl)-1-alkanone or (heterocycle/condensed pyrrolidine)-(piperazinyl)-1-alkanone derivatives and use thereof as p75 inhibitors” (Sanofi, priority 2009, dated 2013).

Counter-ions that a name gives are not always drawn.

A word on the melting point: it is the temperature of the solid-liquid transition. `O=C(CN1CCN(c2ccc(C(F)(F)F)cn2)C(=O)C1)N1CCc2nc(-c3ccccc3)[nH]c2C1` [compound 78, 4-[2-oxo-2-(2-phenyl-3,4,6,7-tetrahydroimidazo[4,5-c]pyridin-5-yl)ethyl]-1-(5-trifluoromethylpyridin-2-yl)piperazin-2-one] registered a melting point of 198 to 200 °C.
For `N#Cc1ccc(N2C3CCC2CN(CC(=O)N2CCc4nn(-c5ccccc5)cc4C2)C3)nc1` the value was 198 to 200 °C.
For `COC(=O)c1ccc(N2C[C@@H](C)N(CC(=O)N3CCc4c(cnn4C(C)(C)C)C3)[C@@H](C)C2)nc1` [compound 92, 6-{(3S,5R)-4-[2-(1-tert-butyl-1,4,6,7-tetrahydropyrazolo[4,3-c]pyridin-5-yl)-2-oxoethyl]-3,5-dimethylpiperazin-1-yl}nicotinic acid methyl ester] the value was 134 to 135 °C; for `N#Cc1ccc(N2C3CCC2CN(CC(=O)N2CCc4nc(-c5ccc(F)cc5)sc4C2)C3)nc1`, 212 to 213 °C.
For `O=C(CN1CC2CCC(C1)N2c1ccc(C(F)(F)F)cn1)N1CCc2cc(-c3ccccc3)oc2C1` the value was 155 °C; for `O=C(CN1CC2CCC(C1)N2c1ncc(F)cn1)N1CCc2c(cnn2-c2ccccc2)C1`, 148 to 150 °C; for `O=C(CN1CCN(c2ccc(C(F)(F)F)cn2)C(=O)C1)N1CCc2nc(-c3ccc(F)cc3)[nH]c2C1` [compound 120, 4-{2-[2-(4-fluorophenyl)-3,4,6,7-tetrahydroimidazo[4,5-c]pyridin-5-yl]-2-oxoethyl}-1-(5-trifluoromethylpyridin-2-yl)piperazin-2-one], 190 to 192 °C.
Take `O=C(CN1CC2CC1CN2c1ccc(C(F)(F)F)cn1)N1CCc2nn(-c3ccccc3)cc2C1` (stereo not shown) [compound 127, 1-(2-phenyl-2,4,6,7-tetrahydropyrazolo[4,3-c]pyridin-5-yl)-2-[5-(5-trifluoromethylpyridin-2-yl)-2,5-diazabicyclo[2.2.1]hept-2-yl]ethanone]: the melting point fell in the range of 174 to 175 °C.
With `O=C(CN1CC2CCC(C1)N2c1ncc(F)cn1)N1CCc2nc(-c3ccccc3)oc2C1` the figure was 193 °C; with `C[C@@H]1CN(CC(=O)N2CCc3nn(-c4ccccc4)cc3C2)[C@@H](C)CN1c1ccc(C(=O)O)cn1` [compound 53, 6-{(2R,5S)-2,5-dimethyl-4-[2-oxo-2-(2-phenyl-2,4,6,7-tetrahydropyrazolo[4,3-c]pyridin-5-yl)ethyl]piperazin-1-yl}nicotinic acid], 165 to 167 °C.
Molecule `O=C(CN1CC2CCC(C1)N2c1cccnc1)N1CCc2nn(-c3ccccn3)cc2C1` gave a melting point of 61 to 62 °C.
With `O=C(CN1CC2CCC(C1)N2c1cccnc1)N1CCc2nn(-c3ccccc3)cc2C1` the figure was 165 to 168 °C; with `COC(=O)c1ccc(N2C3CCC2CN(CC(=O)N2CCc4nn(-c5ccc(C(F)(F)F)cn5)cc4C2)C3)nc1`, 217 to 218 °C; with `O=C(CN1CC2CCC(C1)N2c1ncc(F)cn1)N1CCc2nn(-c3ccc(C(F)(F)F)cn3)cc2C1`, 208 to 209 °C.
Molecule `O=C(CN1CC2CCC(C1)N2c1ccc(-c2nnn[nH]2)cn1)N1CCc2nc(-c3ccccc3)sc2C1` registered a melting point of 201 to 202 °C.
In turn, `O=C(CN1CC2CCC(C1)N2c1ccc(C(F)(F)F)cn1)N1CCc2nn(-c3ccccc3)cc2C1` showed a melting point of 212 to 213 °C.
For `COc1ccc(-n2cc3c(n2)CCN(C(=O)CN2CC4CCC(C2)N4c2ncc(F)cn2)C3)cc1` the value was 186 to 188 °C.
With `O=C(CN1CCN(c2ccc(C(F)(F)F)cn2)C(=O)C1)N1CCc2nn(-c3ccc(C(F)(F)F)cn3)cc2C1` [compound 65, 4-{2-oxo-2-[2-(5-trifluoromethylpyridin-2-yl)-2,4,6,7-tetrahydropyrazolo[4,3-c]pyridin-5-yl]ethyl}-1-(5-trifluoromethylpyridin-2-yl)piperazin-2-one] the figure was 200 to 201 °C; with `O=C(CN1CCN(c2ccc(C(F)(F)F)cn2)C(=O)C1)N1CCc2nc(-c3ccccc3)oc2C1` [compound 96, 4-[2-oxo-2-(2-phenyl-6,7-dihydro-4H-oxazolo[5,4-c]pyridin-5-yl)ethyl]-1-(5-trifluoromethylpyridin-2-yl)piperazin-2-one], 175 °C.
`O=C(CN1CC2CCC(C1)N2c1cncnc1)N1CCc2nn(-c3ccccc3)cc2C1` registered a melting point of 197 to 198 °C.
With `O=C(CN1CC2CCC(C1)N2c1ccc(-c2noc(=O)[nH]2)cn1)N1CCc2nc(-c3ccccc3)sc2C1` the figure was 215 to 218 °C; with `C[C@@H]1CN(c2ccc(C(F)(F)F)cn2)C[C@H](C)N1CC(=O)N1CCc2nc(-c3ccc(F)cc3)[nH]c2C1` [compound 124, 2-[(2S,6R)-2,6-dimethyl-4-(5-trifluoromethylpyridin-2-yl)piperazin-1-yl]-1-[2-(4-fluorophenyl)-3,4,6,7-tetrahydroimidazo[4,5-c]pyridin-5-yl]ethanone], 145 to 147 °C.
For `COc1ccc(-c2nc3c(s2)CN(C(=O)CN2CCN(c4ccc(C(F)(F)F)cn4)C(=O)C2)CC3)cc1` [compound 34, 4-{2-[2-(4-methoxyphenyl)-6,7-dihydro-4H-thiazolo[5,4-c]pyridin-5-yl]-2-oxoethyl}-1-(5-trifluoromethylpyridin-2-yl)piperazin-2-one] the value was 191 to 193 °C.
For `O=C(CN1CCN(c2ccc(-c3ccn[nH]3)cn2)CC1)N1CCc2nc(-c3ccccc3)sc2C1` [compound 134, 1-(2-phenyl-6,7-dihydro-4H-thiazolo[5,4-c]pyridin-5-yl)-2-{4-[5-(2H-pyrazol-3-yl)pyridin-2-yl]piperazin-1-yl}ethanone], the melting point fell in the range of 231 to 237 °C.
In turn, `O=C(CN1CC2CCC(C1)N2c1ncc(F)cn1)N1CCc2n[nH]cc2C1` registered a melting point of 122 to 123 °C.
For `Cc1noc(-c2ccc(N3C[C@@H](C)N(CC(=O)N4CCc5nn(-c6ccccc6)cc5C4)[C@@H](C)C3)nc2)n1` [compound 91, 2-{(2S,6R)-2,6-dimethyl-4-[5-(3-methyl-[1,2,4]oxadiazol-5-yl)-pyridin-2-yl]piperazin-1-yl}-1-(2-phenyl-2,4,6,7-tetrahydropyrazolo[4,3-c]pyridin-5-yl)ethanone] the value was 168 to 171 °C; for `C[C@@H]1CN(c2ccc(C(=O)O)cn2)C[C@H](C)N1CC(=O)N1CCc2nc(-c3ccccc3)[nH]c2C1` [compound 116, 6-{(3S,5R)-3,5-dimethyl-4-[2-oxo-2-(2-phenyl-3,4,6,7-tetrahydroimidazo[4,5-c]pyridin-5-yl)ethyl]piperazin-1-yl}nicotinic acid], 190 to 192 °C.
In the case of `O=C(CN1CC2CC1CN2c1ccc(C(F)(F)F)nn1)N1CCc2nn(-c3ccc(C(F)(F)F)cn3)cc2C1` (stereo not shown) [compound 107, 2-[5-(6-trifluoromethylpyridazin-3-yl)-2,5-diazabicyclo[2.2.1]hept-2-yl]-1-[2-(5-trifluoromethylpyridin-2-yl)-2,4,6,7-tetrahydropyrazolo[4,3-c]pyridin-5-yl]ethanone], the melting point was 140 to 141 °C.
For `O=C(CN1CC2CCC(C1)N2c1ncc(F)cn1)N1CCc2cc(-c3ccccc3)[nH]c2C1` the value was 240 to 242 °C; for `C[C@@H]1CN(c2cccnc2)C[C@H](C)N1CC(=O)N1CCc2nc(-c3ccccc3)[nH]c2C1` [compound 145, 2-((2S,6R)-2,6-dimethyl-4-pyridin-3-ylpiperazin-1-yl)-1-(2-phenyl-3,4,6,7-tetrahydroimidazo[4,5-c]pyridin-5-yl)ethanone], 207 to 209 °C.
For `C[C@@H]1CN(c2cncnc2)C[C@H](C)N1CC(=O)N1CCc2nn(-c3ccccc3)cc2C1` (as salt: HCl) [compound 16, 2-((2S,6R)-2,6-dimethyl-4-pyrimidin-5-yl-piperazin-1-yl)-1-(2-phenyl-2,4,6,7-tetrahydropyrazolo[4,3-c]pyridin-5-yl)ethanone] the value was 166 to 167 °C; for `O=C(CN1CC2CCC(C1)N2c1ccc(C(F)(F)F)cn1)N1CCc2nc(-c3ccncc3)sc2C1`, 183 to 185 °C.
For the molecule `O=C(CN1CCN(c2ccc(C(F)(F)F)cn2)C(=O)C1)N1CCc2nc(-c3ccsc3)sc2C1` [compound 42, 4-[2-oxo-2-(2-thiophen-3-yl-6,7-dihydro-4H-thiazolo[5,4-c]pyridin-5-yl)ethyl]-1-(5-trifluoromethylpyridin-2-yl)piperazin-2-one], the melting point was in the range of 179 to 180 °C.
For `C[C@@H]1CN(CC(=O)N2CCc3nc(-c4ccccc4)sc3C2)[C@@H](C)CN1c1ccc(C(=O)O)cn1` [compound 63, 6-{(2R,5S)-2,5-dimethyl-4-[2-oxo-2-(2-phenyl-6,7-dihydro-4H-thiazolo[5,4-c]pyridin-5-yl)ethyl]piperazin-1-yl}nicotinic acid] the value was 220 to 221 °C; for `C[C@@H]1CN(c2ncc(C(=O)O)cn2)C[C@H](C)N1CC(=O)N1CCc2nc(-c3ccccc3)sc2C1` (as salt: sodium) [compound 72, 2-{(3S,5R)-3,5-dimethyl-4-[2-oxo-2-(2-phenyl-6,7-dihydro-4H-thiazolo[5,4-c]pyridin-5-yl)ethyl]piperazin-1-yl}pyrimidine-5-carboxylic acid], 269 to 272 °C.
With `CCn1cc2c(n1)CCN(C(=O)CN1CCN(c3ccc(C(F)(F)F)cn3)C(=O)C1)C2` [compound 148, 4-[2-(2-ethyl-2,4,6,7-tetrahydropyrazolo[4,3-c]pyridin-5-yl)-2-oxoethyl]-1-(5-trifluoromethylpyridin-2-yl)piperazin-2-one] the figure was 151 to 152 °C; with `C[C@@H]1CN(c2ccc(C(F)(F)F)cn2)C[C@H](C)N1CC(=O)N1CCc2nn(CC(F)(F)F)cc2C1` (as salt: oxalate) [compound 126, 2-[(2S,6R)-2,6-dimethyl-4-(5-trifluoromethylpyridin-2-yl)piperazin-1-yl]-1-[2-(2,2,2-trifluoroethyl)-2,4,6,7-tetrahydropyrazolo[4,3-c]pyridin-5-yl]ethanone], 151 to 153 °C.
